According to patent publication US20150352022A1, “Cosmetic Compositions and Methods For Inhibiting Melanin Synthesis” (The Procter & Gamble Company, priority 2013, published 2015):

Tested on: B16-F1 mouse melanoma cells
Test: Melanin Synthesis Assay
Assay type: cell-based
Experimental: A B16-F1 mouse melanoma cell line may be employed as an assay to measure melanin synthesis. The B16-F1 cells may be obtained from American Tissue Culture Collection, Virginia, USA. The cell culture medium that may be used in the assay may comprise 500 mL of Dulbecco's Modified Eagle's Medium (DMEM), 50 mL Fetal Bovine Serum (FBS), and 5 mL of penicillin-streptomycin liquid. B16-F1 cells that are cultured in this medium and grown to greater than 90% confluency synthesize melanin. While not intending to be bound by any theory, it is hypothesized that melanin synthesis is stimulated by the culture medium and/or stress induced by growth to a high confluency. […] Equipment used in the assay include a CO2 incubator, such as a Forma Series Model 3110 by Therma Scientific, Massachusetts, USA; a hemocytometer, such as a Bright Line model by Hauser Scientific, Pennsylvania, USA; and a UV-Visible Spectrum Plate Reader, such as a SpectraMax250 from Molecular Devices, California, USA. […] Read the 96 well plate using the UV-Vis Plate Reader at 410 nm to optically measure the amount of melanin produced between wells that are treated with [test compound] and control wells that are not treated with a test compound. […] Percentage of melanin synthesis inhibition is calculated by the following equation: [formula] Where OD410 is the Optical Density at 410 nm as measured by the UV-Vis Spectrum Plate Reader. […]

CC(C)=CCC[C@](C)(O)[C@@H]1CC=C(C)CC1 [Sample 1, bisabolol]
Average Melanin % Inhibition (OD 410 nm, Bis 0.1%, HD 0.00056%, UP 0.00011%, Nia 0.00056% where present): 2.2%
reduction of the production of melanin as compared to Sample 4 (HD/UP/Nia) (statistical comparison versus Sample 4): did not significantly reduce
